The SangsterLogP compilation

assay: method code SF, from PMID: 17665861; settings: pH 7.4

logD | SMILES
1.35 | O=C1Nc2ccccc2C12SC1C(=NNC1c1ccc([N+](=O)[O-])cc1)N2c1ccc(Br)cc1 (stereo not drawn)
1.11 | COc1ccccc1N1C2=NNC(c3ccccc3[N+](=O)[O-])C2SC12C(=O)Nc1ccccc12 (stereo not drawn)
1.14 | O=C1Nc2ccccc2C12SC1C(=NNC1c1ccccc1)N2c1ccccc1[N+](=O)[O-] (stereo not drawn)
1.17 | O=C1Nc2ccccc2C12SC1C(=NNC1c1ccccc1Cl)N2c1ccccc1[N+](=O)[O-] (stereo not drawn)
1.45 | O=C1Nc2ccccc2C12SC1C(=NNC1c1ccc([N+](=O)[O-])cc1)N2c1ccccc1[N+](=O)[O-] (stereo not drawn)
1.31 | O=C1Nc2ccccc2C12SC1C(=NNC1c1ccc([N+](=O)[O-])cc1)N2c1ccc(Cl)cc1 (stereo not drawn)
1.26 | COc1ccccc1N1C2=NNC(c3ccc(Cl)cc3)C2SC12C(=O)Nc1ccccc12 (stereo not drawn)
1.35 | COc1ccc(C2NN=C3C2SC2(C(=O)Nc4ccccc42)N3c2ccccc2[N+](=O)[O-])cc1 (stereo not drawn)

The remaining lines, values behind:

SMILES | logD
O=C1Nc2ccccc2C12SC1C(=NNC1c1ccccc1)N2c1ccc(Br)cc1 (stereo not drawn) | 1.24
COc1ccc(C2NN=C3C2SC2(C(=O)Nc4ccccc42)N3c2ccc(Cl)cc2)cc1 (stereo not drawn) | 1.41
COc1ccc(C2NN=C3C2SC2(C(=O)Nc4ccccc42)N3c2ccc(Br)cc2)cc1 (stereo not drawn) | 1.4
COc1ccc(C2NN=C3C2SC2(C(=O)Nc4ccccc42)N3c2cccc3ccccc23)cc1 (stereo not drawn) | 1.2
O=C1Nc2ccccc2C12SC1C(=NNC1c1ccccc1)N2c1ccc(Cl)cc1 (stereo not drawn) | 1.1
O=C1Nc2ccccc2C12SC1C(=NNC1c1ccccc1[N+](=O)[O-])N2c1cccc2ccccc12 (stereo not drawn) | 1.17
COc1ccc(C2NN=C3C2SC2(C(=O)Nc4ccccc42)N3c2ccccc2OC)cc1 (stereo not drawn) | 1.23
O=C1Nc2ccccc2C12SC1C(=NNC1c1ccccc1O)N2c1ccc(Br)cc1 (stereo not drawn) | 1.38
COc1ccccc1N1C2=NNC(c3ccccc3O)C2SC12C(=O)Nc1ccccc12 (stereo not drawn) | 1.14
COc1ccccc1N1C2=NNC(c3ccccc3)C2SC12C(=O)Nc1ccccc12 (stereo not drawn) | 1.19
O=C1Nc2ccccc2C12SC1C(=NNC1c1ccccc1Cl)N2c1ccc(Cl)cc1 (stereo not drawn) | 1.31
O=C1Nc2ccccc2C12SC1C(=NNC1c1ccccc1Cl)N2c1ccc(Br)cc1 (stereo not drawn) | 1.45
O=C1Nc2ccccc2C12SC1C(=NNC1c1ccccc1Cl)N2c1cccc2ccccc12 (stereo not drawn) | 1.21
O=C1Nc2ccccc2C12SC1C(=NNC1c1ccccc1Cl)N2c1ccccc1 (stereo not drawn) | 1.22
O=C1Nc2ccccc2C12SC1C(=NNC1c1ccccc1O)N2c1ccccc1 (stereo not drawn) | 1.25
